Measurements as given in PubChem BioAssay AID1259407 (Chemical Carcinogenesis Research Information System (CCRIS), 2018).
The source made the active and inactive calls. The rule behind the calls is not given here.

System: CCRIS mutagenicity, Ames/micronucleus/aberration tests
Experiment: CCRIS mutagenicity studies
[1] = Test System: AMES SALMONELLA TYPHIMURIUM, Strain/Indicator: TA100, Metabolic Activation: RAT, LIVER, S-9, PCB, Method: PREINCUBATION
[2] = Test System: AMES SALMONELLA TYPHIMURIUM, Strain/Indicator: TA97, Metabolic Activation: NONE, Method: PREINCUBATION
[3] = Test System: AMES SALMONELLA TYPHIMURIUM, Strain/Indicator: TA98, Metabolic Activation: NONE, Method: PREINCUBATION
[4] = Test System: AMES SALMONELLA TYPHIMURIUM, Strain/Indicator: TA100, Metabolic Activation: NONE, Method: PREINCUBATION

Q: `COc1cc([C@@H]2c3cc4c(cc3[C@H](O)[C@H]3COC(=O)[C@H]23)OCO4)cc(OC)c1OC` was tested. Which mutagenic call (Test System: AMES SALMONELLA TYPHIMURIUM, Strain/Indicator: TA98, Metabolic Activation: HAMSTER, LIVER, S-9, AROCLOR 1254, Method: STANDARD PLATE) did it give?
A: inactive; negative

Q: What about the mutagenic call (Test System: AMES SALMONELLA TYPHIMURIUM, Strain/Indicator: TA98, Metabolic Activation: NONE, Method: STANDARD PLATE) of the same compound?
A: inactive; negative

Q: What about the mutagenic call (Test System: AMES SALMONELLA TYPHIMURIUM, Strain/Indicator: TA98, Metabolic Activation: RAT, LIVER, S-9, AROCLOR 1254, Method: STANDARD PLATE) of the same compound?
A: inactive; negative

Q: What about the mutagenic call (Test System: AMES SALMONELLA TYPHIMURIUM, Strain/Indicator: TA100, Metabolic Activation: HAMSTER, LIVER, S-9, AROCLOR 1254, Method: STANDARD PLATE) of the same compound?
A: inactive; negative

Q: What about the mutagenic call (Test System: AMES SALMONELLA TYPHIMURIUM, Strain/Indicator: TA100, Metabolic Activation: NONE, Method: STANDARD PLATE) of the same compound?
A: inactive; negative

Q: What about the mutagenic call (Test System: AMES SALMONELLA TYPHIMURIUM, Strain/Indicator: TA100, Metabolic Activation: RAT, LIVER, S-9, AROCLOR 1254, Method: STANDARD PLATE) of the same compound?
A: inactive; negative

Q: And the mutagenic call (Test System: AMES SALMONELLA TYPHIMURIUM, Strain/Indicator: TA102, Metabolic Activation: NONE, Method: STANDARD PLATE)?
A: inactive; negative

Q: And the mutagenic call (Test System: AMES SALMONELLA TYPHIMURIUM, Strain/Indicator: TA102, Metabolic Activation: RAT, LIVER, S-9, AROCLOR 1254, Method: STANDARD PLATE)?
A: inactive; negative

Q: And the mutagenic call (Test System: AMES SALMONELLA TYPHIMURIUM, Strain/Indicator: TA1535, Metabolic Activation: HAMSTER, LIVER, S-9, AROCLOR 1254, Method: STANDARD PLATE)?
A: inactive; negative

Q: And the mutagenic call (Test System: AMES SALMONELLA TYPHIMURIUM, Strain/Indicator: TA1535, Metabolic Activation: NONE, Method: STANDARD PLATE)?
A: inactive; negative

Q: What about the mutagenic call (Test System: AMES SALMONELLA TYPHIMURIUM, Strain/Indicator: TA1535, Metabolic Activation: RAT, LIVER, S-9, AROCLOR 1254, Method: STANDARD PLATE) of the same compound?
A: inactive; negative

Q: What about the mutagenic call (Test System: AMES SALMONELLA TYPHIMURIUM, Strain/Indicator: TA1537, Metabolic Activation: HAMSTER, LIVER, S-9, AROCLOR 1254, Method: STANDARD PLATE) of the same compound?
A: inactive; negative

Q: And the mutagenic call (Test System: AMES SALMONELLA TYPHIMURIUM, Strain/Indicator: TA1537, Metabolic Activation: NONE, Method: STANDARD PLATE)?
A: inactive; negative

Q: What about the mutagenic call (Test System: AMES SALMONELLA TYPHIMURIUM, Strain/Indicator: TA1537, Metabolic Activation: RAT, LIVER, S-9, AROCLOR 1254, Method: STANDARD PLATE) of the same compound?
A: inactive; negative

Q: And the mutagenic call (Test System: MOUSE LYMPHOMA, Strain/Indicator: L5178Y (TK+/TK-), Metabolic Activation: NONE, Method: SUSPENSION/PLATE)?
A: inactive; negative. reevaluation of results: negative

Q: And the mutagenic call (Test System: MOUSE LYMPHOMA, Strain/Indicator: L5178Y (TK+/TK-), Metabolic Activation: RAT, LIVER, S-9, AROCLOR 1254, Method: SUSPENSION/PLATE)?
A: inactive; negative. reevaluation of results: negative

Q: What does the source list for `ONc1ccccc1`?
A: mutagenic call [1]: active; positive; mutagenic call (Test System: E. COLI, Strain/Indicator: WP2 UVRA, Metabolic Activation: NONE, Method: FLUCTUATION TEST): inactive; negative

Q: For `Cc1ccc([N+](=O)[O-])cc1NO`, which mutagenic call (Test System: AMES SALMONELLA TYPHIMURIUM, Strain/Indicator: TA98, Metabolic Activation: NONE, Method: SUSPENSION/PLATE) is on record?
A: inactive; negative

Q: And the mutagenic call (Test System: AMES SALMONELLA TYPHIMURIUM, Strain/Indicator: TA98, Metabolic Activation: RAT, LIVER, S-9, PHENOBARBITAL AND 5,6-BENZOFLAVONE, Method: SUSPENSION/PLATE)?
A: inactive; negative

Q: And the mutagenic call (Test System: AMES SALMONELLA TYPHIMURIUM, Strain/Indicator: TA100, Metabolic Activation: NONE, Method: SUSPENSION/PLATE)?
A: inactive; negative

Q: What about the mutagenic call (Test System: AMES SALMONELLA TYPHIMURIUM, Strain/Indicator: TA100, Metabolic Activation: RAT, LIVER, S-9, PHENOBARBITAL AND 5,6-BENZOFLAVONE, Method: SUSPENSION/PLATE) of the same compound?
A: inactive; negative

Q: Which mutagenic call (Test System: CHINESE HAMSTER V-79, Strain/Indicator: V-79/8-AZAGUANINE, Metabolic Activation: NONE, Method: STANDARD PLATE) does the source give for `c1ccc2cc3c4c(ccc3cc2c1)CCC1OC41` (stereo not drawn) here?
A: active; positive

Q: For `COc1cc(-c2cc(OC)cc(C(C)(C)C)c2O)c(O)c(C(C)(C)C)c1`, which mutagenic call [2] is on record?
A: inactive; negative

Q: What about the mutagenic call (Test System: AMES SALMONELLA TYPHIMURIUM, Strain/Indicator: TA97, Metabolic Activation: RAT, LIVER, S-9, PCB, Method: PREINCUBATION) of the same compound?
A: inactive; negative

Q: And the mutagenic call [3]?
A: inactive; negative

Q: What about the mutagenic call (Test System: AMES SALMONELLA TYPHIMURIUM, Strain/Indicator: TA98, Metabolic Activation: RAT, LIVER, S-9, PCB, Method: PREINCUBATION) of the same compound?
A: inactive; negative

Q: And the mutagenic call [4]?
A: inactive; negative

Q: What about the mutagenic call [1] of the same compound?
A: inactive; negative

Q: And the mutagenic call (Test System: AMES SALMONELLA TYPHIMURIUM, Strain/Indicator: TA102, Metabolic Activation: NONE, Method: PREINCUBATION)?
A: inactive; negative

Q: And the mutagenic call (Test System: AMES SALMONELLA TYPHIMURIUM, Strain/Indicator: TA102, Metabolic Activation: RAT, LIVER, S-9, PCB, Method: PREINCUBATION)?
A: inactive; negative

Q: For `CC(C)C(C)C`, which mutagenic call (Test System: AMES SALMONELLA TYPHIMURIUM, Strain/Indicator: TA97, Metabolic Activation: HAMSTER, LIVER, S-9, AROCLOR 1254 (10 OR 30%), Method: PREINCUBATION) is on record?
A: inactive; negative

Q: And the mutagenic call [2]?
A: inactive; negative

Q: And the mutagenic call (Test System: AMES SALMONELLA TYPHIMURIUM, Strain/Indicator: TA97, Metabolic Activation: RAT, LIVER, S-9, AROCLOR 1254 (10 OR 30%), Method: PREINCUBATION)?
A: inactive; negative

Q: And the mutagenic call (Test System: AMES SALMONELLA TYPHIMURIUM, Strain/Indicator: TA98, Metabolic Activation: HAMSTER, LIVER, S-9, AROCLOR 1254 (10%), Method: PREINCUBATION)?
A: inactive; negative

Q: What about the mutagenic call (Test System: AMES SALMONELLA TYPHIMURIUM, Strain/Indicator: TA98, Metabolic Activation: HAMSTER, LIVER, S-9, AROCLOR 1254 (30%), Method: DESICCATOR) of the same compound?
A: inactive; negative

Q: And the mutagenic call (Test System: AMES SALMONELLA TYPHIMURIUM, Strain/Indicator: TA98, Metabolic Activation: HAMSTER, LIVER, S-9, AROCLOR 1254 (30%), Method: PREINCUBATION)?
A: inactive; negative

Q: And the mutagenic call (Test System: AMES SALMONELLA TYPHIMURIUM, Strain/Indicator: TA98, Metabolic Activation: NONE, Method: DESICCATOR)?
A: inactive; negative

Q: And the mutagenic call [3]?
A: inactive; negative

Q: What about the mutagenic call (Test System: AMES SALMONELLA TYPHIMURIUM, Strain/Indicator: TA98, Metabolic Activation: RAT, LIVER, S-9, AROCLOR 1254 (10%), Method: PREINCUBATION) of the same compound?
A: inactive; negative

Q: What about the mutagenic call (Test System: AMES SALMONELLA TYPHIMURIUM, Strain/Indicator: TA98, Metabolic Activation: RAT, LIVER, S-9, AROCLOR 1254 (30%), Method: DESICCATOR) of the same compound?
A: inactive; negative

Q: What about the mutagenic call (Test System: AMES SALMONELLA TYPHIMURIUM, Strain/Indicator: TA98, Metabolic Activation: RAT, LIVER, S-9, AROCLOR 1254 (30%), Method: PREINCUBATION) of the same compound?
A: inactive; negative

Q: And the mutagenic call (Test System: AMES SALMONELLA TYPHIMURIUM, Strain/Indicator: TA100, Metabolic Activation: HAMSTER, LIVER, S-9, AROCLOR 1254 (10%), Method: PREINCUBATION)?
A: inactive; negative

Q: What about the mutagenic call (Test System: AMES SALMONELLA TYPHIMURIUM, Strain/Indicator: TA100, Metabolic Activation: HAMSTER, LIVER, S-9, AROCLOR 1254 (30%), Method: DESICCATOR) of the same compound?
A: inactive; negative

Q: What about the mutagenic call (Test System: AMES SALMONELLA TYPHIMURIUM, Strain/Indicator: TA100, Metabolic Activation: HAMSTER, LIVER, S-9, AROCLOR 1254 (30%), Method: PREINCUBATION) of the same compound?
A: inactive; negative

Q: What about the mutagenic call (Test System: AMES SALMONELLA TYPHIMURIUM, Strain/Indicator: TA100, Metabolic Activation: NONE, Method: DESICCATOR) of the same compound?
A: inactive; negative

Q: What about the mutagenic call [4] of the same compound?
A: inactive; negative

Q: And the mutagenic call (Test System: AMES SALMONELLA TYPHIMURIUM, Strain/Indicator: TA100, Metabolic Activation: RAT, LIVER, S-9, AROCLOR 1254 (10%), Method: PREINCUBATION)?
A: inactive; negative

Q: And the mutagenic call (Test System: AMES SALMONELLA TYPHIMURIUM, Strain/Indicator: TA100, Metabolic Activation: RAT, LIVER, S-9, AROCLOR 1254 (30%), Method: DESICCATOR)?
A: inactive; negative

Q: And the mutagenic call (Test System: AMES SALMONELLA TYPHIMURIUM, Strain/Indicator: TA100, Metabolic Activation: RAT, LIVER, S-9, AROCLOR 1254 (30%), Method: PREINCUBATION)?
A: inactive; negative

Q: And the mutagenic call (Test System: AMES SALMONELLA TYPHIMURIUM, Strain/Indicator: TA1535, Metabolic Activation: HAMSTER, LIVER, S-9, AROCLOR 1254 (10 OR 30%), Method: PREINCUBATION)?
A: inactive; negative

Q: And the mutagenic call (Test System: AMES SALMONELLA TYPHIMURIUM, Strain/Indicator: TA1535, Metabolic Activation: NONE, Method: PREINCUBATION)?
A: inactive; negative

Q: What about the mutagenic call (Test System: AMES SALMONELLA TYPHIMURIUM, Strain/Indicator: TA1535, Metabolic Activation: RAT, LIVER, S-9, AROCLOR 1254 (10 OR 30%), Method: PREINCUBATION) of the same compound?
A: inactive; negative
